Reference: the supplement of paper PMC5579334
± gives the standard deviation of the averaged measurements.

Tests used:
[1] = test system: YST-1; experiment: drug sensitivity score (DSS, CellTiter-Glo viability, 72 h) (DSS (dimensionless)); higher = more sensitive; extreme values may be limits of the assay
In short: (§1)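 MPNST cell lines and primary human Schwann cells were seeded at 750–1000 cells per well into 384-well plates preprinted with each compound at five concentrations in 10-fold steps, then incubated 72 h at 37 °C, 5% CO2. CellTiter-Glo ATP luminescence gave viability, scaled between vehicle and positive-control wells, with duplicates averaged where present. Curves were fitted with a four-parameter logistic model. Percent inhibition refers to the top concentration, while drug sensitivity score and relative IC50, censored at the top concentration, come from these fits.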

[2] = test system: STS26T; experiment: as above
In short: as §1

[3] = test system: S462; experiment: as above
In short: as §1

[4] = test system: ST8814; experiment: as above
In short: as §1

[5] = test system: HS-PSS; experiment: as above
In short: as §1

[6] = test system: HSC2 (primary human Schwann cells); experiment: as above
In short: as §1

[7] = test system: HS-Sch-2; experiment: as above
In short: as §1

[8] = test system: HSC1 (primary human Schwann cells); experiment: as above
In short: as §1

[9] = test system: S1507-2; experiment: as above
In short: as §1

[10] = test system: STS26T; experiment: drug sensitivity score (DSS, CellTox-Green cytotoxicity, 72 h) (DSS (dimensionless)); higher = more cytotoxic; extreme values may be limits of the assay
In short: (§2)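 For 72 h at 37 °C, MPNST cell lines and primary human Schwann cells were exposed in 384-well plates to five 10-fold compound dilutions. CellTox-Green, added before seeding at a final 1:1000 dilution, gave fluorescence from DNA released by disrupted cells. Signals were scaled to vehicle and positive-control wells, cultures failing plate quality control were left out, and four-parameter logistic fits were applied. Relative IC50 and drug sensitivity score were derived from the fits, with IC50 censored at the top concentration.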

[11] = test system: ST8814; experiment: as above
In short: as §2

[12] = test system: HS-PSS; experiment: as above
In short: as §2

[13] = test system: HSC2 (primary human Schwann cells); experiment: as above
In short: as §2

[14] = test system: HSC1 (primary human Schwann cells); experiment: as above
In short: as §2

[15] = test system: S1507-2; experiment: as above
In short: as §2

[16] = test system: YST-1; experiment: % inhibition of CellTiter-Glo viability at highest tested concentration (72 h), relative to DMSO and benzethonium chloride controls; higher = more inhibition
In short: as §1

[17] = test system: STS26T; experiment: as above
In short: as §1

[18] = test system: S462; experiment: as above
In short: as §1

[19] = test system: ST8814; experiment: as above
In short: as §1

[20] = test system: HS-PSS; experiment: as above
In short: as §1

[21] = test system: HSC2 (primary human Schwann cells); experiment: as above
In short: as §1

[22] = test system: HS-Sch-2; experiment: as above
In short: as §1

[23] = test system: HSC1 (primary human Schwann cells); experiment: as above
In short: as §1

[24] = test system: S1507-2; experiment: as above
In short: as §1

SMILES | drug sensitivity score [1] | drug sensitivity score [2] | drug sensitivity score [3] | drug sensitivity score [4] | drug sensitivity score [5] | drug sensitivity score [6] | drug sensitivity score [7] | drug sensitivity score [8] | drug sensitivity score [9] | drug sensitivity score [10] | drug sensitivity score [11] | drug sensitivity score [12] | drug sensitivity score [13] | drug sensitivity score [14] | drug sensitivity score [15] | % inhibition [16] | % inhibition [17] | % inhibition [18] | % inhibition [19] | % inhibition [20] | % inhibition [21] | % inhibition [22] | % inhibition [23] | % inhibition [24]
N#Cc1ccc(C(c2ccc(C#N)cc2)n2cncn2)cc1 [Letrozole] (max concentration tested 10000 nM) | 0 | 0 | 0 | 0 | 0 | 0 | 0.34 | 0 | 0 | 0 | 0 | 0 | 0 | 0 | 0 | 7.25% | 3.15% | -4.84 ± 2.2% | -5.31% | 10.6% | 3.35% | 14.7% | 1.16% | -4.25 ± 4.2%
CN(C)C/C=C/C(=O)Nc1cc2c(Nc3ccc(F)c(Cl)c3)ncnc2cc1O[C@H]1CCOC1 [Afatinib] (max concentration tested 1000 nM) | 0 | 0 | 0 | 0 | 2.49 | 0 | 1.58 | 0 | 1.88 ± 2.7 | 0 | 0 | 0 | 0 | 0 | 0 | 3.62% | 12.7% | 2.97 ± 6.7% | 3.12% | 29.9% | 3.38% | 21.2% | 8.81% | 11.6 ± 4.3%
CN1CCN(CCOc2cc(OC3CCOCC3)c3c(Nc4c(Cl)ccc5c4OCO5)ncnc3c2)CC1 [Saracatinib] (max concentration tested 10000 nM) | 0.09 | 5.09 | 3.91 ± 0.7 | 5.63 | 6.08 | 3.21 | 3.07 | 7.06 | 7.04 ± 1.5 | 1.58 | 5.67 | 1.13 | 6.91 | 0 | 9.49 ± 1.6 | 14.6% | 50.2% | 36.2 ± 0.27% | 55.2% | 67.5% | 37.1% | 51.7% | 50.3% | 74.8 ± 2.1%
CCCCCCCCc1ccc(CCC(N)(CO)CO)cc1 [Fingolimod] (max concentration tested 10000 nM) | 5.97 | 6.58 | 5.79 ± 0.46 | 6.27 | 8.31 | 7.17 | 6.87 | 7.62 | 7.98 ± 1 | 4.94 | 5.09 | 5.38 | 7.44 | 8.13 | 13.3 ± 9.3 | 101% | 102% | 101.6 ± 0.59% | 103% | 101% | 101% | 101% | 103% | 103 ± 2.5%
C#Cc1cccc(Nc2ncnc3cc(OCCOC)c(OCCOC)cc23)c1 [Erlotinib] (max concentration tested 10000 nM) | 5.25 | 2.29 | 3.86 ± 0.29 | 1.41 | 3.63 | 5.39 | 5.08 | 5.2 | 1.85 ± 2 | 0 | 0 | 0 | 0 | 0 | 0 | 56.7% | 33.2% | 54.5 ± 2.7% | 31.1% | 48.6% | 74.7% | 55.9% | 73.1% | 26.3 ± 10%
O=C(O)c1ccc(-c2c[nH]c3ncc(-c4ccccc4)cc23)cc1C1CCCC1 (max concentration tested 10000 nM) | 0 | 0 | 0 | 0 | 0.42 | 0.756 | 1.47 | 0 | 0 | 0 | 0 | 0 | 0 | 0 | 0.00895 ± 0.013 | 9.07% | -4.89% | 4.19 ± 1.2% | 7.81% | 19.2% | 18.7% | 31% | 8.07% | -2.03 ± 9.5%
CNNCc1ccc(C(=O)NC(C)C)cc1 [Procarbazine] (max concentration tested 10000 nM) | 0 | 0 | 0 | 0 | 0 | 0 | 0 | 0 | 0 | 0 | 0 | 0 | 0 | 0 | 0.135 ± 0.19 | 3.64% | 4.63% | -14.6 ± 3.4% | 1.52% | 4.68% | 3.15% | -5.24% | 4.32% | -0.333 ± 1.2%
Oc1ncnc2[nH]ncc12 [Allopurinol] (max concentration tested 10000 nM) | 0 | 0 | 0 | 0 | 0 | 0 | 0 | 0 | 0 | 0 | 0 | 0 | 0 | 0 | 0 | 8.22% | 6.65% | -1.67 ± 0.31% | -3.79% | 6.72% | 1.63% | 8.43% | 5.09% | -4.6 ± 1.9%
Cc1c(Cn2c(C)nc3c(C(=O)O)cc(N4CCOCC4)cc32)cccc1C(F)(F)F (max concentration tested 10000 nM) | 0 | 0.72 | 0 | 0.197 | 1.06 | 0 | 0 | 0 | 3.59 ± 0.27 | 0 | 0 | 0 | 0 | 0 | 0 | 4.11% | 17.6% | 3.26 ± 4.3% | 11.8% | 19.4% | 5.2% | 8.95% | 4.46% | 33.6 ± 5.3%
